Data published in US20260102407A1, “TREATMENT METHODS” (priority 2020, published 2026).

Test system: Balb/c mice
Assay: Collagen antibody-induced arthritis (footpad thickness, H&E, micro-CT, TRAP)
Format: in vivo, mouse
Conditions: CAIA mice
Procedure: Collagen antibody-induced arthritis. Arthritis was induced in female Balb/c mice (6-8 week-old) as previously described with a commercially obtained cocktail of 5 monoclonal antibodies to type II collagen at 2 mg/mouse (Chondrex, Inc. Redmond, WA) followed by LPS (50 μg/mouse) with or without BT2 (3 or 30 mg/kg mouse) in DMSO vehicle was administered i.p. on Day 3. Hind footpad thickness was measured on Day 9 using digital calipers. Mice were sacrificed on Day 14 and microCT scanning of hind limbs was performed.
Micro-CT scanning and analysis. Formalin-ethanol fixed hind limbs were micro-CT scanned prior to histology processing using a Siemens Inveon micro-CT scanner (Victoria, Australia). Data was acquired with the Inveon Acquisition Workplace at 16.84 μm pixel size, 360 projections, 4100 ms integration time, 80 keV photon energy and 140 μA current. 3D models were visualized and snap shots of the limbs acquired with the Inveon Research Workplace software. Data was quantified by binary score where 0=no bone destruction and 1=destruction was given to each individual limb.
Tartrate-resistant acid phosphatase (TRAP) staining. Osteoclasts were stained using TRAP kit (Cosmo Bio, Japan, cat. PMC-AK04F-COS). Sections were heated at 65° C. for 1 h prior dewaxing. Tissue sections were deparaffinised with 100% xylene and rehydrated with 100, 70 and 30% ethanol and rinsed with distilled water for 5 min. Sections were covered with TRAP staining solution containing 3 mg tartaric acid per 50 ml tartaric acid buffer. The sections were incubated at 37° C. for 1 h, then rinsed in distilled water 3 times to halt the reaction. Sections were counterstained with hematoxylin for 5s then washed in running water until clear then dried. Sections were dehydrated with xylene and air-dried then mounted with aqueous permanent mounting medium. Within the synovium on the medial aspect of each animal joint, 6 random areas photographed under 20× objective were selected in the blinded fashion. Numbers of osteoclasts were counted using NIH Image J. Alternatively TRAP staining was quantitated using IOD (Image-Pro Plus).

CCOC(=O)Nc1ccc2c(c1)C(=O)N(CC)c1ccccc1O2 [BT2, (10-ethyl-11-oxo-10,11-dihydro-dibenzo[b,f][1,4]oxazepin-2-yl)-carbamic acid ethyl ester]
TRAP staining in the joints (Day 14): reduced TRAP staining | bone destruction (3D micro-CT of hind limbs) (Day 14): inhibits bone destruction | inflammation (H&E staining) (Day 14): reduced by BT2 | hind footpad thickness (single administration 30 mg/kg i.p. Day 3, Day 9): inhibited
